In patent publication US20240277658A1, “NLRP3 ACTIVATORS FOR USE IN THE TREATMENT OF INFECTIOUS DISEASES OR CANCER BY ACTIVATING NLRP3 INFLAMMASOME” (ALBERT-LUDWIGS-UNIVERSITÄT FREIBURG, priority 2020, published 2024):
Several values for one entry are separate records, joined by “and”; a condition that tells them apart may be missing. Identical values can stand only once. Like-named read-outs stand apart in the source and are kept apart here.

Experiments:
NLRP3 inflammasome [1] = target: T1, NLRP3 inflammasome (Mus musculus, UniProt Q8R4B8); experiment: Inflammasome stimulation of BMDCs after pre-incubation with inhibitors (MCC950, KCl, ebselen, cytochalasin D); format: cell-based; settings: for dependence of NLRP3 inflammasome activation on potassium efflux from the cell: 50 mM extracellular KCl, FIGS. 11 and 17
T1 construct: endogenous in cells; host or cells: primary mouse bone marrow-derived dendritic cells (BMDCs), LPS-primed
T1 sequence (Q8R4B8 whole entry): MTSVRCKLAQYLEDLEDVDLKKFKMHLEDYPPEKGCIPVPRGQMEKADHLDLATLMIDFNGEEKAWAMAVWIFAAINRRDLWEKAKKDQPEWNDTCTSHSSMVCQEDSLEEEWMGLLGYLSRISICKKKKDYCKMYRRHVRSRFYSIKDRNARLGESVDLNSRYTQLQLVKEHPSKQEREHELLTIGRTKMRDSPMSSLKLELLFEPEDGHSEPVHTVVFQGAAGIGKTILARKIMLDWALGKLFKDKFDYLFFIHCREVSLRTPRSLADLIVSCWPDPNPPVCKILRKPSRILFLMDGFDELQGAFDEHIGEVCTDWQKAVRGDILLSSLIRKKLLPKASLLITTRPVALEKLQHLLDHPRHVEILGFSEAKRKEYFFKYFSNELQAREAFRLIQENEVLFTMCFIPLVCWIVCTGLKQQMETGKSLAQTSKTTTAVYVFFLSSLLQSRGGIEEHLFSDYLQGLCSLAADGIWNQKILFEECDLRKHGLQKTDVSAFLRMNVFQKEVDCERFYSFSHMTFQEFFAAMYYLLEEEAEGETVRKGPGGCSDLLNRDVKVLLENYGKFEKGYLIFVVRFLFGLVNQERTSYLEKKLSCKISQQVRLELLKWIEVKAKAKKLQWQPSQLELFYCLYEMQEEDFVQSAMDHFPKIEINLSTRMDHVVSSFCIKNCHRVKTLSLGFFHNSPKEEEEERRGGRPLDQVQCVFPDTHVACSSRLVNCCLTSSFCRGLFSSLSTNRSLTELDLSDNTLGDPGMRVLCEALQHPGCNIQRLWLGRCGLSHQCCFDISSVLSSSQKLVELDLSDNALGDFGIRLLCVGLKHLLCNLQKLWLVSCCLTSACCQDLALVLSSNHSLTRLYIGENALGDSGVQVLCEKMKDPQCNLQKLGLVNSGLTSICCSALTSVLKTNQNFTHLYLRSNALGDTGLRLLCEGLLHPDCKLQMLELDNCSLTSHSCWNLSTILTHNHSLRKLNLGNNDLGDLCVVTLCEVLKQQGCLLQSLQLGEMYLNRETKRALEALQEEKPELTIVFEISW
Experimental: For canonical inflammasome activation BMDCs after 7-9 days of differentiation were harvested and counted with a Neubauer Chamber (Hecht Assistant) and the concentration was set to 1 Mio cells ml^−1. 100 μl cell suspension per well were seeded in 96-well plates. The cells were primed with 50 ng ml^−1 E. coli K12 ultra-pure LPS for 3 hours and subsequently treated with canonical inflammasome activators or experimental compounds for 3 hours if not indicated differently (incubation time FIG. 4D, 5, 7, 8, 11, 13-18: 3 h, FIG. 12: 4 h). Concentrations of the stimuli were as follows if not indicated differently: 5 μM nigericin, 100 μM imiquimod (also known as R837), 100 μM CL097, 100 μM R848, […] poly(dA:dT), 300 μg ml^−1 MSU. If an inhibitor was used before stimuli treatment, the inhibitor was added after 2.5 hours of priming and it was incubated for 30 minutes before inflammasome activation. […]
(§1) All inflammasome stimulations were performed in three technical replicates for each condition. Lytic cell death was determined via LDH release (see FIGS. 8, 13-16 and 18), cytokines quantified in cell-free supernatants via ELISA (see FIGS. 4D, 7-9, 11-19) and cell lysates and supernatants analyzed via immunoblotting (see FIGS. 5A and 5B) as previously described in detail (Gross, Olaf, 2012 “Measuring the inflammasome”, Methods in molecular biology, Clifton, N.J., 844, pp. 199-222. Schneider, Katharina S.; Thomas, Christina J.; Groß, Olaf, 2013, “Inflammasome activation and inhibition in primary murine bone marrow-derived cells, and assays for IL-1α, IL-1β, and caspase-1”, Methods in molecular biology, Clifton, N.J., 1040, pp. 117-135).

NLRP3 inflammasome [2] = target: T1, NLRP3 inflammasome; experiment: IL-1β release from LPS-primed BMDCs (ELISA) as readout of NLRP3 inflammasome activation; format: cell-based
Summary of the method: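 NLRP3 inflammasome activation was read out as IL-1β released into the supernatant, measured by ELISA. Murine BMDCs were primed with LPS (50 ng ml^−1, 3 hours), then incubated with compounds for 3 hours, with each condition run in three technical replicates. Nigericin at 5 μM acted as the positive control activator, and IL-1β release was also expressed as a percentage of that control.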

BMDCs = experiment: LDH release (lytic cell death, pyroptosis) from LPS-primed BMDCs; format: cell-based, mouse; settings: for Average (% positive control): LDH release; for cytotoxicity at 50 µM / cytotoxicity at 100 µM / cytotoxicity at 25 µM / cytotoxicity at 20 µM / cytotoxicity at 40 µM / cytotoxicity at 80 µM: Mus musculus, BMDC
Summary of the method: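 LDH released into medium, detected colorimetrically, served as the pyroptosis read-out in triplicate. LPS-primed (50 ng ml^−1, 3 h) murine bone marrow-derived dendritic cells received test compounds, typically 50 μM, or nigericin (5 μM), R837 or CL097 (100 μM) for 3 hours.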

NLRP3 = experiment: Inflammasome stimulation (IL-1β, LDH release) in BMDCs from NLRP3 knockout or ASC knockout mice; format: cell-based, mouse; settings: IL-1β and LDH release
Experimental: For canonical inflammasome activation BMDCs after 7-9 days of differentiation were harvested and counted with a Neubauer Chamber (Hecht Assistant) and the concentration was set to 1 Mio cells ml^−1. 100 μl cell suspension per well were seeded in 96-well plates. The cells were primed with 50 ng ml^−1 E. coli K12 ultra-pure LPS for 3 hours and subsequently treated with canonical inflammasome activators or experimental compounds for 3 hours if not indicated differently (incubation time FIG. 4D, 5, 7, 8, 11, 13-18: 3 h, FIG. 12: 4 h). Concentrations of the stimuli were as follows if not indicated differently: 5 μM nigericin, 100 μM imiquimod (also known as R837), 100 μM CL097, 100 μM R848, […] poly(dA:dT), 300 μg ml^−1 MSU. If an inhibitor was used before stimuli treatment, the inhibitor was added after 2.5 hours of priming and it was incubated for 30 minutes before inflammasome activation. Inhibitors were used as follows: 3 μM MCC950, 45 mM KCl, 30 μM ebselen (2-Phenyl-1,2-benzoselenazol-3-one), 5 μM cytochalasin D (see FIGS. 8, 11, 12 and 17).
as §1

[3] = system: mitochondrial respiration; settings: Groß et al., Immunity 2016; cited from earlier work
TLR7/TLR8 = settings: background statement; cited from earlier work
[4] = IL-1β release, 100 μM, positive control nigericin 5 μM
[5] = single replicates, 100 μM, LPS-primed BMDCs
[6] = 100 μM, positive control nigericin 5 μM

## COc1ccccc1NC(=O)NCc1nc(-c2ccc(C(F)(F)F)cc2)no1 [EN21, 1-(2-methoxyphenyl)-3-((3-(4-(trifluoromethyl)phenyl)-1,2,4-oxadiazol-5-yl)methyl)urea]
NLRP3 inflammasome [1]
  dependence of NLRP3 inflammasome activation on potassium efflux from the cell: independently of potassium efflux
NLRP3 inflammasome [1]; LPS-primed wild-type BMDCs, FIG. 12
  effect of the endocytosis inhibitor cytochalasin D on NLRP3 activation: has no effect
NLRP3 inflammasome [1]; wild-type BMDCs, compound 50 μM, FIG. 8
  effect of the NLRP3-specific inhibitor MCC950 on inflammasome activation by the compound: completely suppresses
NLRP3 inflammasome [2]; BMDCs, FIG. 4D
  EC50 for induction of IL-1β, times lower than for imiquimod and CL097: 10 times
NLRP3 inflammasome [2]; IL-1β release, compound 50 μM, positive control nigericin 5 μM
  Average (% positive control): 108.566 % positive control
NLRP3 inflammasome [2]; compound 50 μM, LPS-primed BMDCs
  Average IL-1β: 7.782 ng/mL
NLRP3 inflammasome [2]; single replicates, compound 50 μM, LPS-primed BMDCs
  IL-1β: 8.582 ng/mL and 7.428 ng/mL and 8.023 ng/mL and 6.613 ng/mL and 8.352 ng/mL and 7.696 ng/mL
BMDCs; compound 50 μM, positive control nigericin 5 μM
  Average (% positive control): 68.766 % positive control
BMDCs; compound 50 μM, LPS-primed BMDCs, read-out: Average LDH release (% of max.)
  cytotoxicity at 50 µM: 50.3%
NLRP3
  characteristics of inflammasome activation in cells isolated from NLRP3 knockout mice: do not occur

## CCOCc1nc2c([nH]1)c(N)nc1ccccc12 [CL097, reference compound]
NLRP3 inflammasome [2]; 100 μM, LPS-primed BMDCs
  Average IL-1β: 8.570 ng/mL
NLRP3 inflammasome [2]; [4]
  Average (% positive control): 119.560 % positive control
NLRP3 inflammasome [2]; [5]
  IL-1β: 7.355 ng/mL and 8.020 ng/mL and 8.660 ng/mL and 8.522 ng/mL and 9.540 ng/mL and 9.324 ng/mL
[3]
  inhibition of cellular respiration (mitochondrial electron transport chain): inhibit cellular respiration
BMDCs; 100 μM, LPS-primed BMDCs
  Average LDH release (% of max.): 68.096 % of max.
BMDCs; [6]
  Average (% positive control): 93.083 % positive control
BMDCs; [5]
  LDH release (% of max.): 56.511 % of max. and 69.145 % of max. and 62.611 % of max. and 76.051 % of max. and 68.018 % of max. and 76.242 % of max.
TLR7/TLR8
  activation of toll-like receptor-7 (TLR7) and/or TLR8: activate

## CC(C)Cn1cnc2c(N)nc3ccccc3c21 [imiquimod, reference compound]
NLRP3 inflammasome [2]; 100 μM, LPS-primed BMDCs
  Average IL-1β: 2.376 ng/mL
NLRP3 inflammasome [2]; [4]
  Average (% positive control): 33.144 % positive control
NLRP3 inflammasome [2]; single replicates, 100 μM, LPS-primed BMDCs, listed as R837
  IL-1β: 5.472 ng/mL and 4.151 ng/mL and 1.552 ng/mL and 1.212 ng/mL and 0.958 ng/mL and 0.911 ng/mL
[3]
  inhibition of cellular respiration (mitochondrial electron transport chain): inhibit cellular respiration
BMDCs; [6]
  Average (% positive control): 35.494 % positive control
BMDCs; 100 μM, LPS-primed BMDCs, read-out: Average LDH release (% of max.)
  cytotoxicity at 100 µM: 26%
TLR7/TLR8
  activation of toll-like receptor-7 (TLR7) and/or TLR8: activate

## O=C(Nc1ccc2ncccc2c1)Nc1ccc2ncccc2c1 [EN-A, 1,3-di(quinolin-6-yl)urea]
NLRP3 inflammasome [1]
  dependence of NLRP3 inflammasome activation on potassium efflux from the cell: independently of potassium efflux
NLRP3 inflammasome [2]; section 1.2, 25 μM
  Average IL-1β: 4.696 ng/mL
NLRP3 inflammasome [2]; section 1.2, 50 μM
  Average IL-1β: 5.026 ng/mL
NLRP3 inflammasome [2]; section 1.2, 100 μM
  Average IL-1β: 5.084 ng/mL
NLRP3 inflammasome [2]; section 1.2, IL-1β release, 25 μM, positive control EN22 25 μM
  Average (% positive control): 93.430 % positive control
NLRP3 inflammasome [2]; section 1.2, IL-1β release, 50 μM, positive control EN22 25 μM
  Average (% positive control): 100.007 % positive control
NLRP3 inflammasome [2]; section 1.2, IL-1β release, 100 μM, positive control EN22 25 μM
  Average (% positive control): 101.159 % positive control
NLRP3 inflammasome [2]; section 1.2, single replicates, 25 μM
  IL-1β: 5.256 ng/mL and 4.576 ng/mL and 4.256 ng/mL
NLRP3 inflammasome [2]; section 1.2, single replicates, 50 μM
  IL-1β: 4.819 ng/mL and 5.538 ng/mL and 4.722 ng/mL
NLRP3 inflammasome [2]; section 1.2, single replicates, 100 μM
  IL-1β: 5.256 ng/mL and 5.328 ng/mL and 4.669 ng/mL
BMDCs; section 1.2, 25 μM, read-out: Average LDH release (% of max.)
  cytotoxicity at 25 µM: 33.1%
BMDCs; section 1.2, 50 μM, read-out: Average LDH release (% of max.)
  cytotoxicity at 50 µM: 32.4%
BMDCs; section 1.2, 100 μM, read-out: Average LDH release (% of max.)
  cytotoxicity at 100 µM: 33%
BMDCs; section 1.2, single replicates, 25 μM, read-out: LDH release (% of max.)
  cytotoxicity at 25 µM: 33.7%
BMDCs; section 1.2, single replicates, 50 μM, read-out: LDH release (% of max.)
  cytotoxicity at 50 µM: 32.1%
BMDCs; section 1.2, single replicates, 100 μM, read-out: LDH release (% of max.)
  cytotoxicity at 100 µM: 34.8%
BMDCs; section 1.2, 25 μM, positive control EN22 25 μM
  Average (% positive control): 110.581 % positive control
BMDCs; section 1.2, 50 μM, positive control EN22 25 μM
  Average (% positive control): 108.112 % positive control
BMDCs; section 1.2, 100 μM, positive control EN22 25 μM
  Average (% positive control): 110.157 % positive control
NLRP3
  characteristics of inflammasome activation in cells isolated from NLRP3 knockout mice: do not occur

## COc1ccc(NC(=O)Nc2ccc3ncccc3c2)cc1 [JB010, 1-(4-methoxyphenyl)-3-(quinolin-6-yl)urea]
NLRP3 inflammasome [2]; 20 μM
  Average IL-1β: 2.404 ng/mL
NLRP3 inflammasome [2]; 20 μM, individual replicate values
  IL-1β: 2.200 ng/mL and 3.078 ng/mL and 1.934 ng/mL
NLRP3 inflammasome [2]; 40 μM
  Average IL-1β: 2.655 ng/mL
NLRP3 inflammasome [2]; 40 μM, individual replicate values
  IL-1β: 2.727 ng/mL and 2.742 ng/mL and 2.498 ng/mL
NLRP3 inflammasome [2]; 80 μM
  Average IL-1β: 3.966 ng/mL
NLRP3 inflammasome [2]; 80 μM, individual replicate values
  IL-1β: 2.757 ng/mL and 3.613 ng/mL and 5.527 ng/mL
NLRP3 inflammasome [2]; IL-1β, 20 μM, positive control EN22
  Average (% positive control): 122.814 % positive control
NLRP3 inflammasome [2]; IL-1β, 40 μM, positive control EN22
  Average (% positive control): 135.661 % positive control
NLRP3 inflammasome [2]; IL-1β, 80 μM, positive control EN22
  Average (% positive control): 202.590 % positive control
BMDCs; 20 μM, positive control EN22 20 μM
  Average (% positive control): 44.689 % positive control
BMDCs; 40 μM, positive control EN22 20 μM
  Average (% positive control): 62.649 % positive control
BMDCs; 80 μM, positive control EN22 20 μM
  Average (% positive control): 77.427 % positive control
BMDCs; 20 μM, individual replicate values, read-out: LDH release (% of max.)
  cytotoxicity at 20 µM: 24.4%
BMDCs; 20 μM, read-out: Average LDH release (% of max.)
  cytotoxicity at 20 µM: 23.8%
BMDCs; 40 μM, individual replicate values, read-out: LDH release (% of max.)
  cytotoxicity at 40 µM: 31.4%
BMDCs; 40 μM, read-out: Average LDH release (% of max.)
  cytotoxicity at 40 µM: 33.4%
BMDCs; 80 μM, individual replicate values, read-out: LDH release (% of max.)
  cytotoxicity at 80 µM: 38.6%
BMDCs; 80 μM, read-out: Average LDH release (% of max.)
  cytotoxicity at 80 µM: 41.2%
NLRP3
  characteristics of inflammasome activation in cells isolated from NLRP3 knockout mice: do not occur
